Values quoted from earlier work in US20260297106A1, “SPIROCYCLIC SUBSTITUTED OXOISOINDOLINYL PIPERIDINE-2,6-DIONE COMPOUND” (Bristol-Myers Squibb Company, priority 2023, published 2026).

Tests used:
[1] = test system: highly immunogenic syngeneic tumors; conditions: engineered mouse models; cited from earlier work
T and NK cell = conditions: preclinical and clinical studies; cited from earlier work

Nc1cccc2c1CN(C1CCC(=O)NC1=O)C2=O (centres unmarked) [lenalidomide]
antitumor immune responses [1]: modestly increase antitumor immune responses | T and NK cell functions (T and NK cell): augment T and NK cell functions
